Legend:
[1] = system: MCF-7 cells; test: Breast Cancer Cell Viability Assays (MCF-7, CellTiter-Glo); format: cell-based; conditions: 5 days' compound exposure; for IC50: Homo sapiens, MCF7, 120 h
Summary of the method: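 MCF-7 cells (320/well, RPMI with 10% FBS) exposed for 5 days to an eleven-point semilog series, 0.3–0.000003 μM final. Viability read by CellTiter-Glo luminescence, expressed as background-corrected percent of untreated cells.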

[2] = target: T1, ER-α in MCF-7 cells (Homo sapiens, UniProt P03372); test: Breast Cancer Cell ER-α In Cell Western Assay (SP1); format: cell-based; conditions: 4 or 24 hr post compound addition; for Emax: MCF7, SP1 antibody, read-out: ER-α In Cell Western Assay (SP1) Max Response; for DC50: SP1 antibody, read-out: ER-α In Cell Western Assay (SP1) IC50
T1 construct: endogenous in cells; host or cells: MCF-7
T1 sequence (P03372 1-595): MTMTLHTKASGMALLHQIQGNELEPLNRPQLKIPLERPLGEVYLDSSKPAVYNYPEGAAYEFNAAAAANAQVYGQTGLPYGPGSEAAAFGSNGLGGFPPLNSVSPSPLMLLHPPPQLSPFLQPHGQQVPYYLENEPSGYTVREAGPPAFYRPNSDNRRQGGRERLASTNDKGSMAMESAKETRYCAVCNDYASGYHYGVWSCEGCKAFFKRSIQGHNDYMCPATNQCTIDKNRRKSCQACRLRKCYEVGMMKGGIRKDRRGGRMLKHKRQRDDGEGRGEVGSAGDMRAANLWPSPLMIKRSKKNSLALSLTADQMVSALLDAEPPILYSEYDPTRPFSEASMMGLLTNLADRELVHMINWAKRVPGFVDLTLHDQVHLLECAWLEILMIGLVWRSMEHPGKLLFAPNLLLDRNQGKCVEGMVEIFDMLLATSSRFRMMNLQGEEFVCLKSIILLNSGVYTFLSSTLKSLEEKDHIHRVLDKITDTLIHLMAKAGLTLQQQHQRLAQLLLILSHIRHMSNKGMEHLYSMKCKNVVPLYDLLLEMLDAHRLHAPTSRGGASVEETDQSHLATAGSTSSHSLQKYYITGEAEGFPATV
Summary of the method: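 MCF-7 cells in charcoal-stripped FBS medium, treated with 11-point semilog dilutions (0.3–0.000003 μM final) for 4 or 24 h. Fixed cells immunostained with SP1 antibody (800 nm) and DRAQ5 DNA (700 nm); ER/DNA ratio expressed as % of untreated cells.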

Row | IC50 [1] | Emax [2] | DC50 [2] | Compound | MCF7 Viability Assay Max Response [1]
1 | ≤ 100 nM | ≥ 40% | ≤ 100 nM | CS(=O)(=O)c1cnc(Oc2ccc(/C(=C(\c3ccc(/C=C/C(=O)O)cc3)c3ccc4[nH]nc(F)c4c3)C3CCC3)cc2)cn1 [Example 122, (E)-3-(4-((E)-2-Cyclobutyl-1-(3-fluoro-1H-indazol-5-yl)-2-(4-((5-(methylsulfonyl)pyrazin-2-yl)oxy)phenyl)vinyl)phenyl)acrylic acid] | ++ (++ = a single % value ≧ 40%)
2 | ≤ 100 nM | ≥ 40% | ≤ 100 nM | O=C(O)/C=C/c1ccc(/C(=C(\c2ccccc2F)C2CCC2)c2ccc3[nH]nc(F)c3c2)cc1 [Example 123, (E)-3-(4-((E)-2-Cyclobutyl-1-(3-fluoro-1H-indazol-5-yl)-2-(2-fluorophenyl)vinyl)phenyl)acrylic acid] | ++ (++ = a single % value ≧ 40%)
3 | ≤ 100 nM | ≥ 40% | ≤ 100 nM | O=C(O)/C=C/c1ccc(/C(=C(\c2ccccc2Cl)C2CCC2)c2ccc3[nH]nc(F)c3c2)cc1 [Example 124, (E)-3-(4-((E)-2-(2-Chlorophenyl)-2-cyclobutyl-1-(3-fluoro-1H-indazol-5-yl)vinyl)phenyl)acrylic acid] | ++ (++ = a single % value ≧ 40%)
4 | ≤ 100 nM | ≥ 40% | ≤ 100 nM | Cc1ccccc1/C(=C(\c1ccc(/C=C/C(=O)O)cc1)c1ccc2[nH]nc(F)c2c1)C1CCC1 [Example 125, (E)-3-(4-((E)-2-Cyclobutyl-1-(3-fluoro-1H-indazol-5-yl)-2-(o-tolyl)vinyl)phenyl)acrylic acid] | ++ (++ = a single % value ≧ 40%)
5 | ≤ 100 nM | ≥ 40% | ≤ 100 nM | Cc1cscc1/C(=C(\c1ccc(/C=C/C(=O)O)cc1)c1cccc2[nH]ncc12)C1CCC1 [Example 126, (E)-3-(4-((E)-2-Cyclobutyl-1-(1H-indazol-4-yl)-2-(4-methylthiophen-3-yl)vinyl)phenyl)acrylic acid] | ++ (++ = a single % value ≧ 40%)
6 | ≤ 100 nM | ≥ 40% | ≤ 100 nM | COc1cc(C)c(/C(=C(\c2ccc(/C=C/C(=O)O)cc2)c2cccc3[nH]ncc23)C2CCC2)cn1 [Example 127, (E)-3-(4-((E)-2-Cyclobutyl-1-(1H-indazol-4-yl)-2-(6-methoxy-4-methylpyridin-3-yl)vinyl)phenyl)acrylic acid] | ++ (++ = a single % value ≧ 40%)
7 | > 100 nM | ≥ 40% | ≤ 100 nM | O=C(O)/C=C/c1ccc(/C(=C(\c2cccnc2)C2CCC2)c2ccc3[nH]nc(F)c3c2)cc1 [Example 128, (E)-3-(4-((E)-2-Cyclobutyl-1-(3-fluoro-1H-indazol-5-yl)-2-(pyridin-3-yl)vinyl)phenyl)acrylic acid] | + (+ = a single % value < 40%)
8 | ≤ 100 nM | ≥ 40% | ≤ 100 nM | Cc1cncc(/C(=C(\c2ccc(/C=C/C(=O)O)cc2)c2ccc3[nH]nc(F)c3c2)C2CCC2)c1 [Example 129, (E)-3-(4-((E)-2-Cyclobutyl-1-(3-fluoro-1H-indazol-5-yl)-2-(5-methylpyridin-3-yl)vinyl)phenyl)acrylic acid] | ++ (++ = a single % value ≧ 40%)
9 | ≤ 100 nM | ≥ 40% | ≤ 100 nM | O=C(O)/C=C/c1ccc(/C(=C(\c2cncc(Cl)c2)C2CCC2)c2ccc3[nH]nc(F)c3c2)cc1 [Example 130, (E)-3-(4-((E)-2-(5-Chloropyridin-3-yl)-2-cyclobutyl-1-(3-fluoro-1H-indazol-5-yl)vinyl)phenyl)acrylic acid] | ++ (++ = a single % value ≧ 40%)
10 | ≤ 100 nM | ≥ 40% | ≤ 100 nM | O=C(O)/C=C/c1ccc(/C(=C(\c2cncc(F)c2)C2CCC2)c2ccc3[nH]nc(F)c3c2)cc1 [Example 131, (E)-3-(4-((E)-2-Cyclobutyl-1-(3-fluoro-1H-indazol-5-yl)-2-(5-fluoropyridin-3-yl)vinyl)phenyl)acrylic acid] | ++ (++ = a single % value ≧ 40%)
11 | ≤ 100 nM | ≥ 40% | ≤ 100 nM | COc1cncc(/C(=C(\c2ccc(/C=C/C(=O)O)cc2)c2ccc3[nH]nc(F)c3c2)C2CCC2)c1 [Example 132, (E)-3-(4-((E)-2-Cyclobutyl-1-(3-fluoro-1H-indazol-5-yl)-2-(5-methoxypyridin-3-yl)vinyl)phenyl)acrylic acid] | ++ (++ = a single % value ≧ 40%)
12 | ≤ 100 nM | ≥ 40% | ≤ 100 nM | COc1cc(C)ncc1/C(=C(\c1ccc(/C=C/C(=O)O)cc1)c1ccc2[nH]nc(F)c2c1)C1CCC1 [Example 133, (E)-3-(4-((E)-2-Cyclobutyl-1-(3-fluoro-1H-indazol-5-yl)-2-(4-methoxy-6-methylpyridin-3-yl)vinyl)phenyl)acrylic acid] | ++ (++ = a single % value ≧ 40%)
13 | ≤ 100 nM | ≥ 40% | ≤ 100 nM | Cc1nc(/C=C/C(=O)O)ccc1/C(=C(\c1ccccc1)C1CCC1)c1ccc2[nH]nc(F)c2c1 [Example 134, (E)-3-(5-((Z)-2-Cyclobutyl-1-(3-fluoro-1H-indazol-5-yl)-2-phenylvinyl)-6-methylpyridin-2-yl)acrylic acid] | ++ (++ = a single % value ≧ 40%)
14 | > 100 nM | ≥ 40% | ≤ 100 nM | Cc1cc(/C(=C(\c2ccccc2)C2CCC2)c2ccc3[nH]nc(F)c3c2)cnc1/C=C/C(=O)O [Example 135, (E)-3-(5-((Z)-2-Cyclobutyl-1-(3-fluoro-1H-indazol-5-yl)-2-phenylvinyl)-3-methylpyridin-2-yl)acrylic acid] | ++ (++ = a single % value ≧ 40%)
15 | ≤ 100 nM | ≥ 40% | ≤ 100 nM | COc1ncc(/C(=C(\c2ccc(/C=C/C(=O)O)cc2)c2ccc3[nH]nc(F)c3c2)C2CCC2)cc1Cl [Example 136, (E)-3-(4-((E)-2-(5-Chloro-6-methoxypyridin-3-yl)-2-cyclobutyl-1-(3-fluoro-1H-indazol-5-yl)vinyl)phenyl)acrylic acid] | ++ (++ = a single % value ≧ 40%)
16 | ≤ 100 nM | ≥ 40% | ≤ 100 nM | COc1ncc(/C(=C(\c2ccc(/C=C/C(=O)O)cc2)c2ccc3[nH]nc(F)c3c2)C2CCC2)cc1F [Example 137, (E)-3-(4-((E)-2-Cyclobutyl-1-(3-fluoro-1H-indazol-5-yl)-2-(5-fluoro-6-methoxypyridin-3-yl)vinyl)phenyl)acrylic acid] | ++ (++ = a single % value ≧ 40%)
17 | ≤ 100 nM | ≥ 40% | ≤ 100 nM | COc1ccc(/C(=C(\c2ccc(/C=C/C(=O)O)cc2)c2ccc3[nH]nc(F)c3c2)C2CCC2)cn1 [Example 138, (E)-3-(4-((E)-2-Cyclobutyl-1-(3-fluoro-1H-indazol-5-yl)-2-(6-methoxypyridin-3-yl)vinyl)phenyl)acrylic acid] | ++ (++ = a single % value ≧ 40%)
18 | ≤ 100 nM | ≥ 40% | ≤ 100 nM | CC/C(=C(/c1ccc(/C=C/C(=O)O)cc1)c1cccc2[nH]nc(F)c12)c1cnc(OC)cc1C [Example 139, (E)-3-(4-((E)-1-(3-Fluoro-1H-indazol-4-yl)-2-(6-methoxy-4-methylpyridin-3-yl)but-1-en-1-yl)phenyl)acrylic acid] | ++ (++ = a single % value ≧ 40%)
19 | ≤ 100 nM | ≥ 40% | ≤ 100 nM | COc1cc(C)c(/C(=C(/c2ccc3[nH]nc(F)c3c2)c2ccc(/C=C/C(=O)O)nc2C)C2CCC2)cn1 [Example 140, (E)-3-(5-((Z)-2-Cyclobutyl-1-(3-fluoro-1H-indazol-5-yl)-2-(6-methoxy-4-methylpyridin-3-yl)vinyl)-6-methylpyridin-2-yl)acrylic acid] | ++ (++ = a single % value ≧ 40%)
20 | ≤ 100 nM | ≥ 40% | ≤ 100 nM | O=C(O)/C=C/c1ccc(/C(=C(\c2ccccn2)C2CCC2)c2ccc3[nH]nc(F)c3c2)cc1 [Example 141, (E)-3-(4-((E)-2-Cyclobutyl-1-(3-fluoro-1H-indazol-5-yl)-2-(pyridin-2-yl)vinyl)phenyl)acrylic acid] | ++ (++ = a single % value ≧ 40%)

From patent US9499538B2, “Estrogen receptor modulators and uses thereof” (Seragon Pharmaceuticals, Inc., priority 2012, dated 2016)
